In patent US20170327556A1, “CARTILAGE-BINDING FUSION PROTEINS” (Merrimack Pharmaceuticals, Inc., priority 2013, published 2017):

Tests used:
[1] = ELISA binding of fusion proteins to chondroitin sulfate coated plates; settings: 6x-Histidine-tagged proteins, FIG. 1B
Protocol: (§1) The specificity of binding of fusion proteins to the polysaccharides heparan sulfate and chondroitin sulfate may be determined by measuring the ability of the proteins to bind polysaccharides coated on an ELISA plate. Heparin Binding Plates (BD Biosciences) are coated with 50 μl of 2-10 μg/mL concentration of heparan sulfate or chondroitin sulfate (Sigma-Aldrich®) and incubated overnight at room temperature. Plates are washed with PBS and blocked with 250 μl of 0.2% gelatin in PBS for 1 hour at 37 C. Plates are then washed with PBS and tapped dry. 50 μl of protein in a dilution series is added to the wells and incubated for 2 hours at 37 C. The protein dilution series starts from 100 nM and includes ten additional three-fold dilutions in PBS, 0.2% gelatin and one blank (PBS, 0.2% gelatin only). After the plates are washed in PBS, 50 μl of anti-human IGF-1 (Abcam) at 1:250 in PBST is added and the plates are incubated for 1 hour rotating at room temperature. Plates are washed with PBST and 100 μl of 1:1000 anti-Rabbit-HRP (Cell Signaling Technology®) in PBST is added to each well and the plate is incubated for 1 hour at room temperature. […] The absorbance is measured at 450 nm and the resulting data is analyzed using GraphPad Prism® (GraphPad Software, San Diego, Calif.). […]

[2] = ELISA binding of fusion proteins to heparan sulfate coated plates; settings: 6x-Histidine-tagged proteins, FIG. 1A
Protocol: as §1

[3] = test system: BXPC-3 cells; assay: Stimulation of AKT phosphorylation in BXPC-3 cells (pAKT ELISA); type: cell-based; settings: 10 min stimulation, doses in M (Table 4), 6x-Histidine-tagged fusion proteins
Protocol: (§2) Fusion proteins comprising IGF-1 and a cartilage matrix binding domain were prepared as described above. Six fusion proteins were prepared: GF-Fus1 (6x-Histidine-tagged), GF-Fus2(6x-Histidine-tagged), GF-Fus3 (6x-Histidine-tagged), GF-Fus4 (6x-Histidine-tagged), GF-Fus5 (6x-Histidine-tagged), and GF-Fus6 (6x-Histidine-tagged). In order to ensure that the growth factor portion of the fusion protein was active in the fusion proteins, each construct was tested for its ability to stimulate AKT phosphorylation. Wild-type IGF-1 (wtIGF) was included as a control. Bovine chondrocytes were stimulated with a range of doses of each fusion protein, and pAKT levels were measured by ELISA.
For ligand stimulation, chondrocytes were seeded at 200,000 cells/well into 96-well tissue culture plates with 100 μL of chondrocyte culture medium with fetal bovine serum (10% v/v, Life Technologies Cat#16140071). Alternatively, BXPC-3 cells, a pancreatic adenocarcinoma cell line (ATCC® CRL-1687™), were seeded at 30,000 cells/well into 96-well tissue culture plates with 100 μL of BXPC-3 medium (RPMI-1640, e.g., ATCC® 30-2001™), with L-glutamine (2 mM), Penicillin-Streptomycin (1×, Gibco® 15140-122), Fetal Bovine Serum (10% v/v, Life Technologies Cat#16140071)). After 24 hrs, both chondrocytes and BXPC-3 cells were rinsed with 100 μL of sterile PBS (pH=7.4) per well and 100 μl of chondrocyte or BXPC-3 culture medium (without fetal bovine serum) was added to the corresponding cell type. After an additional 24 hrs, cells were stimulated with the doses of fusion proteins set forth in Table 4 by adding 25 μL of fusion protein at a concentration 5 times greater than the concentration listed in Table 4 to the 100 μL of medium already in the wells. After 10 min of stimulation, fusion protein was removed and wells were rinsed in ice cold PBS (pH=7.4). 50 μL/well of cell extraction buffer (Invitrogen cat# FNN0011) was added and incubated with shaking at 4° C. for 30 minutes. Lysates were then frozen at −80° C.
Corning high binding 384 well black ELISA plates (cat#3577) are coated with 30 μL of capture antibody at 4 μg/mL (anti-AKT1 total capture antibody, Upstate, Cat#05-591MG) in PBS (pH=7.4) for 16 hours at room temperature, washed and blocked with […] 2% bovine serum albumin (Sigma Cat# A3294) in PBS (pH=7.4) for 1 hour at room temperature. 20 μL of thawed lysates or recombinant pAKT standards (ten 2-fold serial dilutions of 400 ng recombinant human AKT, active (Upstate, Cat#14-276) in PBS (pH=7.4) containing 50% v/v Cell extraction buffer (Invitrogen Cat#FNN0011), 1% bovine serum albumin (Sigma Cat# A3294), 0.05% Tween20) are applied to the coated plate and incubated for 2 hours at room temperature. After washing 3 times with 100 μL/well of 0.05% Tween-20/PBS (pH=7.4) bound phospho-AKT is detected using Phospho-AKT (Ser473)(587F11)-biotinylated (Cell Signaling, Cat#5102), streptavidin-HRP (R&D Systems Cat# DY998, Part #890803), SuperSignal ELISA PicoChemiluminescent Substrate (Thermo Scientific Cat#37069), using a luminometer to detect light emissions at 425 nm.

[4] = test system: AKT phosphorylation in bovine chondrocytes; assay: Stimulation of AKT phosphorylation in primary bovine chondrocytes (pAKT ELISA); type: cell-based; settings: 10 min stimulation, doses in M (Table 4), 6x-Histidine-tagged fusion proteins
Protocol: as §2
Bovine chondrocytes are isolated from the femoral chondyles of 2-4 week old bovine calves. Knee joints are mounted by removing all tissue surrounding the femur, removing the femoral head with a bone saw or hack saw, and clamping in a tissue vice. Joints are aseptically opened, removing the patella, tibia and fibula. Using a scalpel, cartilage is sliced off the femoral chondyles and placed in sterile PBS (pH=7.4) containing penicillin-streptomycin (1×, Gibco 15140-122). PBS is subsequently removed and pronase solution (50 mL per 5 g of tissue), consisting of high glucose DMEM (Life Technologies Cat#11965-092), fetal bovine serum (10% v/v, Life Technologies Cat#16140071), HEPES (100 mM, Gibco 15630-080), non-essential amino acids (1×, Sigma M7145), penicillin-streptomycin (1×, Gibco 15140-122), proline (400 μM, Sigma P5607-256), Protease Type XIV (2 mg/mL, Sigma Cat# P5147), is added for 1 hour with stirring. After rinsing twice with sterile PBS (pH=7.4), collagenase solution (50 mL per 5 g of tissue), consisting of high glucose DMEM (Life Technologies Cat#11965-092), fetal bovine serum (10% v/v, Life Technologies Cat#16140071), HEPES (100 mM, Gibco 15630-080), NEAA(1×, Sigma M7145), Penicillin-Streptomycin (1×, Gibco 15140-122), 0.25 mg/mL Collagenase P (Roche Cat#11 249 002 001), is added for 18 hours with stirring. Cell are strained, washed, and resuspended in chondrocyte culture medium (low glucose DMEM (1× Gibco 11885-084), Penicillin-Streptomycin (1×, Gibco 15140-122), non-essential amino acids (1×, Sigma M7145), and HEPES (100 mM, Gibco 15630-080)) with fetal bovine serum (10% v/v, Life Technologies Cat#16140071).
For ligand stimulation, chondrocytes were seeded at 200,000 cells/well into 96-well tissue culture plates with 100 μL of chondrocyte culture medium with fetal bovine serum (10% v/v, Life Technologies Cat#16140071). […]

[5] = test system: bovine cartilage explants; assay: In vitro joint disease model (IL-1), explanted bovine cartilage: sGAG loss; type: cell-based; settings: 13.3 nM supplied in every medium change, IL-1, relative to Disease control
Excerpt: (§3) Bovine cartilage explants (3 mm diameter, 1.2 mm thick) are harvested from the femoral patellar groove of 2-4 week old bovine calves. Knee joints are mounted by removing all tissue surrounding the femur, removing the femoral head with a bone saw or hack saw, and clamping in a tissue vice. Joints are aseptically opened, removing the patella, tibia and fibula. Using a 3 mm diameter disposable biopsy punch, approximately 80×3 mm diameter full thickness cartilage cores are punched from the femoral-patellar groove. A sterile knife is used to slice the cores at the cartilage-bone interface. Cores are then inserted into 3 mm diameter holes in a 1.2 mm thick sterile stainless steel plate and sliced flush with the plate using sterile razor blades to remove the excess core length, resulting in 3 mm diameter, 1.2 mm thick cartilage explants with the superficial zone cartilage intact.
(§4) Explants are cultured in 96-well plates in 300 μL of medium consisting of low glucose DMEM (1× Gibco 11885-084), Penicillin-Streptomycin (1×, Gibco 15140-122), ascorbic acid (20 μg/mL, Sigma A4403), proline (400 μM, Sigma P5607-256), non-essential amino acids (1×, Sigma M7145), and HEPES (100 mM, Gibco 15630-080). Explants from three animals (n=2-3 per animal) are used in each treatment condition for a total explant number of 8-9 per condition. Medium is changed every 2 days. On days 6 and 10, the medium is supplemented with 5 μCi/mL of ^35S-sodium sulfate (Perkin Elmer NEX041H001MC, 1 mCi).
(§5) Timepoints are taken at day 8 and 12: explant tissue is washed four times for 30 min each (2 hr total) in 1 mM unlabeled sodium sulfate in PBS. Each explant is weighed wet and frozen at −20° C. until digestion. Tissue digestion was performed with Proteinase K (Roche cat #3115879001) and each explant is digested in 1 mL 100 μg/mL Proteinase K in 50 mM Tris-HCL, 1 mM Calcium Chloride pH=8.0 buffer at 60° C. overnight. Measurement of sGAG content and DNA content is performed using standard assay methods such as those described in Hoemann, 2004, Methods in Molecular Medicine: Cartilage and Osteoarthritis. Totowa, N.J.: Humana Press Inc.; p. 127-52. ^35S-sulfate content of the digested cartilage explants was quantified by mixing 20 μL of digest with 250 μL of scintillation fluid (Perkin Elmer cat #1200-439) and counting with a WALLAC 1450 MICROBETA TRILUX scintillation counter.
(§6) Treatments were given at the following concentrations: wtIGF-1 13.3 nM=100 ng/mL (IGF-1 R&D systems 291-G1); GF-Fus1 (6x-Histidine tagged) 13.3 nM=135 ng/mL; GF-Fus2 (6x-Histidine tagged) 13.3 nM=140 ng/mL; and GF-Fus3 (6x-Histidine tagged)13.3 nM=181 ng/mL. All treatments included IL-1 and were given for either 4 days or the entire culture duration. The outcomes measured were ^35S-sulfate incorporation, DNA content, and sGAG content of plug at endpoint, and sGAG released to media for all media changes. Controls were either no treatment (Healthy) or IL-1 alone at 1 ng/mL (Disease).
(§7) FIG. 4 depicts a graph of cartilage matrix loss as measured by the cumulative percentage of total sGAG lost to the culture medium against time (days). Percentage loss is calculated by dividing the cumulative sGAG in the culture medium by the total sGAG present in the medium over the culture period plus the sGAG remaining in the explant at the end of culture. Cartilage matrix loss was reduced by each IGF fusion protein relative to the disease control at a level similar to wild-type IGF. New cartilage matrix synthesis (i.e. sulfated proteoglycan synthesis is measured by ^35S-Sulfate incorporation) during the final 48 hrs of cultures terminated at day 8 and day 12 is shown in FIGS. 5A and 5B, respectively. Cartilage matrix synthesis was increased compared to disease control by all fusion proteins (GF-Fus1, GF-Fus2, and GF-Fus3) and wild-type IGF when the fusion proteins were supplied in every medium change for the entire culture duration of 8 and 12 days (black bars). […]

[6] = test system: bovine cartilage explants; assay: In vitro joint disease model (IL-1), explanted bovine cartilage: ^35S-sulfate incorporation; type: cell-based; settings: supplied in every medium change for 8 or 12 days, IL-1, final 48 hrs, versus Disease control
Excerpt: as §3, §4, §5, §6, §7

binding to chondroitin sulfate [1] | binding to heparan sulfate [2] | Substance | logEC50 Mean [3] | logEC50 Mean [4] | cartilage matrix loss (% sGAG loss) [5] | cartilage matrix synthesis (^35S-sulfate incorporation) [6]
did not bind | did not bind | GF-Fus4: IGF-1(LR3) fused to Collagen IX HB domain | −9.133 | – | – | –
– | – | GF-Fus2: N-terminal Prelp HB domain fused to wild-type IGF | – | −8.830 | reduced | increased
